Measurements published in US20230146675A1, “PYRIMIDO[5,4-d]PYRIMIDINE DERIVATIVES AS ENT INHIBITORS FOR THE TREATMENT OF CANCERS, AND COMBINATION THEREOF WITH ADENOSINE RECEPTOR ANTAGONISTS” (ITEOS BELGIUM SA, priority 2020, published 2023).

What follows are molecules tested against T1, human ENT1 (Homo sapiens, UniProt Q99808) (assay: ENT1 binding assay (competition with Sahenta-DY647 on JAR cells)). Conditions: binned IC50.
T1 sequence (Q99808 1-456): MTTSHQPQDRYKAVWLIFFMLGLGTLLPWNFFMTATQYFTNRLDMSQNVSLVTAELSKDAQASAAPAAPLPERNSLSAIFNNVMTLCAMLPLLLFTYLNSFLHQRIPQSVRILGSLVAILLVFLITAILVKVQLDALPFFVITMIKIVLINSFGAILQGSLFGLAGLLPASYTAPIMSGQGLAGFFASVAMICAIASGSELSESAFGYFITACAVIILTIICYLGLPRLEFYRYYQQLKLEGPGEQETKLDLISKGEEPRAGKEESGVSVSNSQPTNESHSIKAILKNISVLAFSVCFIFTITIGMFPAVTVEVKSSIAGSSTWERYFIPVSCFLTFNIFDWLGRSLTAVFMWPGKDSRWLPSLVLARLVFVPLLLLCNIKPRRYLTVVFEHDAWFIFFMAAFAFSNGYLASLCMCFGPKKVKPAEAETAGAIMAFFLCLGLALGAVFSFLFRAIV
Set-up: JAR cells expressing ENT1 were bought from ATCC; host or cells: JAR cells
Method: Purpose. […] By measuring the fluorescence at the end of the assay we could assess the binding potency of the compounds of the present invention.
JAR cells were resuspended in the described buffer. Compounds of the present invention and Sahenta-DY647 were diluted 200× in the described buffer.
The total volume of the reaction was 100 μL (50 μL of cells, 25 μL of the compounds of the present invention and 25 μL of Sahenta-DY647) in a 96 well plate, U-bottom (Greiner®, #650-180). The plates were washed 2× by centrifugation (4 min, 400 rcf at 4° C.) in the same buffer.

Row | Structure (SMILES) | IC50
1 | COCCN(Cc1ccc(C(=O)O)c(C)c1)c1nc(N2CCN(C)C(=O)C2)c2nc(N(CCOC)CCOC)nc(N3CCC(OC)CC3)c2n1 [Compound 338, 4-(((6-(bis(2-methoxyethyl)amino)-8-(4-methoxypiperidin-1-yl)-4-(4-methyl-3-oxopiperazin-1-yl)pyrimido[5,4-d]pyrimidin-2-yl)(2-methoxyethyl)amino)methyl)-2-methylbenzoic acid] | < 100 nM
2 | CCCN(C)c1nc(N(CCOC)CCOC)nc2c(N3CCS(=O)(=O)CC3)nc(N(CCOC)CCOC)nc12 [Compound 8, 4-(2,6-bis(bis(2-methoxyethyl)amino)-8-(methyl(propyl)amino)pyrimido[5,4-d]pyrimidin-4-yl)thiomorpholine 1,1-dioxide] | < 100 nM
3 | CCOC(=O)C1CCN(c2nc(N(CCOC)CCOC)nc3c(N4CCC(C(=O)OCC)CC4)nc(N(CCOC)CCOC)nc23)CC1 [Compound 3, diethyl 1,1′-(2,6-bis(bis(2-methoxyethyl)amino)pyrimido[5,4-d]pyrimidine-4,8-diyl)bis(piperidine-4-carboxylate)] | 100 to 500 nM
4 | COCCN(Cc1ccc(OC)c(OC)c1OC)c1nc(N2CCC(OC)CC2)c2nc(N(CCO)CCO)nc(N3CCN(C)C(=O)C3)c2n1 [Compound 304, 4-(2-(bis(2-hydroxyethyl)amino)-6-((2-methoxyethyl)(2,3,4-trimethoxybenzyl)amino)-8-(4-methoxypiperidin-1-yl)pyrimido[5,4-d]pyrimidin-4-yl)-1-methylpiperazin-2-one] | < 100 nM
5 | CCN(CCN1CCCC1)c1nc(N2CCN(C)C(=O)C2)c2nc(N(CCOC)CCOC)nc(N3CCC(OC)CC3)c2n1 [Compound 267, 4-(6-(bis(2-methoxyethyl)amino)-2-(ethyl(2-(pyrrolidin-1-yl)ethyl)amino)-8-(4-methoxypiperidin-1-yl)pyrimido[5,4-d]pyrimidin-4-yl)-1-methylpiperazin-2-one] | 100 to 500 nM
6 | COCCN(CCOC)c1nc(N2CCC(OC)CC2)c2nc(N(CCOC)CCOC)nc(N3CCC(F)CC3)c2n1 [Compound 108, 4-(4-fluoropiperidin-1-yl)-N2,N2,N6,N6-tetrakis(2-methoxyethyl)-8-(4-methoxypiperidin-1-yl)pyrimido[5,4-d]pyrimidine-2,6-diamine] | < 100 nM
7 | COCCN(CCOC)c1nc(N2CCC(OC)CC2)c2nc(N(CCOC)CCOC)nc(NCc3ccc(F)c(Cl)c3)c2n1 [Compound 138, N4-(3-chloro-4-fluorobenzyl)-N2,N2,N6,N6-tetrakis(2-methoxyethyl)-8-(4-methoxypiperidin-1-yl)pyrimido[5,4-d]pyrimidine-2,4,6-triamine] | < 100 nM
8 | COCCN(CCOC)c1nc(N2CCN(C)C(=O)C2)c2nc(N(CCOC)CCOC)nc(NCc3cccc(OC)c3)c2n1 [Compound 209, 4-(2,6-bis(bis(2-methoxyethyl)amino)-8-((3-methoxybenzyl)amino)pyrimido[5,4-d]pyrimidin-4-yl)-1-methylpiperazin-2-one] | < 100 nM
9 | COCCOC1CCN(c2nc(N(CCOC)CCOC)nc3c(N4CCC(OC)CC4)nc(N(CCOC)CCOC)nc23)CC1 [Compound 202, 4-(4-(2-methoxyethoxy)piperidin-1-yl)-N2,N2,N6,N6-tetrakis(2-methoxyethyl)-8-(4-methoxypiperidin-1-yl)pyrimido[5,4-d]pyrimidine-2,6-diamine] | 500 to 1000 nM
10 | COCCN(CCOC)c1nc(N2CCC(OC)CC2)c2nc(N(CCO)CCO)nc(N3CC(=O)N(C)C(=O)C3)c2n1 [Compound 307, 4-(2-(bis(2-hydroxyethyl)amino)-6-(bis(2-methoxyethyl)amino)-8-(4-methoxypiperidin-1-yl)pyrimido[5,4-d]pyrimidin-4-yl)-1-methylpiperazine-2,6-dione] | < 100 nM
11 | COCCN(CCOC)c1nc(N2CCC(OC)CC2)c2nc(N(CCOC)CCOC)nc(NCc3ccc(C)o3)c2n1 [Compound 161, N2,N2,N6,N6-tetrakis(2-methoxyethyl)-8-(4-methoxypiperidin-1-yl)-N4-((5-methylfuran-2-yl)methyl)pyrimido[5,4-d]pyrimidine-2,4,6-triamine] | 100 to 500 nM
12 | COCCN(CCOC)c1nc(N2CCN(c3ncn(C)n3)CC2)c2nc(N(CCOC)CCOC)nc(NCc3cccc(OC)c3)c2n1 [Compound 222, N4-(3-methoxybenzyl)-N2,N2,N6,N6-tetrakis(2-methoxyethyl)-8-(4-(1-methyl-1H-1,2,4-triazol-3-yl)piperazin-1-yl)pyrimido[5,4-d]pyrimidine-2,4,6-triamine] | < 100 nM
13 | COCCN(CCOC)c1nc(N2CCC(OC)CC2)c2nc(N(CCOC)CCOC)nc(NCCCO)c2n1 [Compound 175, 3-((2,6-bis(bis(2-methoxyethyl)amino)-8-(4-methoxypiperidin-1-yl)pyrimido[5,4-d]pyrimidin-4-yl)amino)propan-1-ol] | 500 to 1000 nM
14 | COCCN(CCOC)c1nc(N2CCc3oc(C)nc3C2)c2nc(N(CCOC)CCOC)nc(N3CCN(C)C(=O)C3)c2n1 [Compound 256, 4-(2,6-bis(bis(2-methoxyethyl)amino)-8-(2-methyl-6,7-dihydrooxazolo[4,5-c]pyridin-5(4H)-yl)pyrimido[5,4-d]pyrimidin-4-yl)-1-methylpiperazin-2-one] | < 100 nM
15 | COCCN(CCOC)c1nc(N2CC(O)(C(F)(F)F)C2)c2nc(N(CCOC)CCOC)nc(N3CC(O)(C(F)(F)F)C3)c2n1 [Compound 11, 1,1′-(2,6-bis(bis(2-methoxyethyl)amino)pyrimido[5,4-d]pyrimidine-4,8-diyl)bis(3-(trifluoromethyl)azetidin-3-ol)] | < 100 nM
16 | COCCN(CCOC)c1nc(N2CCn3cncc3C2)c2nc(N(CCOC)CCOC)nc(N3CCN(C)C(=O)C3)c2n1 [Compound 250, 4-(2,6-bis(bis(2-methoxyethyl)amino)-8-(5,6-dihydroimidazo[1,5-a]pyrazin-7(8H)-yl)pyrimido[5,4-d]pyrimidin-4-yl)-1-methylpiperazin-2-one] | 100 to 500 nM
17 | COCCN(CCOC)c1nc(N2CCC(OC)CC2)c2nc(N(CCOC)CCOC)nc(N3CCC(C#N)CC3)c2n1 [Compound 90, 1-(2,6-bis(bis(2-methoxyethyl)amino)-8-(4-methoxypiperidin-1-yl)pyrimido[5,4-d]pyrimidin-4-yl)piperidine-4-carbonitrile] | 100 to 500 nM
18 | COCCN(CCOC)c1nc(N2CCC(OC)CC2)c2nc(N(CCOC)CCOC)nc(NCc3cccc(S(C)(=O)=O)c3)c2n1 [Compound 148, N2,N2,N6,N6-tetrakis(2-methoxyethyl)-8-(4-methoxypiperidin-1-yl)-N4-(3-(methylsulfonyl)benzyl)pyrimido[5,4-d]pyrimidine-2,4,6-triamine] | 100 to 500 nM
19 | COCCN(CCOC)c1nc(N2CCS(=O)(=O)CC2)c2nc(N(CCOC)CCOC)nc(N3CCS(=O)(=O)CC3)c2n1 [Compound 37, 4,4′-(2,6-bis(bis(2-methoxyethyl)amino)pyrimido[5,4-d]pyrimidine-4,8-diyl)bis(thiomorpholine 1,1-dioxide)] | 500 to 1000 nM
20 | COCCN(CCOC)c1nc(N2CCC(OC)CC2)c2nc(N(CCOC)CCOC)nc(NCCCn3ccnc3)c2n1 [Compound 176, N4-(3-(1H-imidazol-1-yl)propyl)-N2,N2,N6,N6-tetrakis(2-methoxyethyl)-8-(4-methoxypiperidin-1-yl)pyrimido[5,4-d]pyrimidine-2,4,6-triamine] | 500 to 1000 nM
21 | COCCN(CCOC)c1nc(N2CC(O)(C(F)(F)F)C2)c2nc(N(CCOC)CCOC)nc(N3CCC(OC)CC3)c2n1 [Compound 111, 1-(2,6-bis(bis(2-methoxyethyl)amino)-8-(4-methoxypiperidin-1-yl)pyrimido[5,4-d]pyrimidin-4-yl)-3-(trifluoromethyl)azetidin-3-ol] | < 100 nM
22 | COCCN(CCOC)c1nc(N2CCN(C)C(=O)C2)c2nc(N(CCOC)CCn3ccnc3)nc(N3CCC(OC)CC3)c2n1 [Compound 286, 4-(6-((2-(1H-imidazol-1-yl)ethyl)(2-methoxyethyl)amino)-2-(bis(2-methoxyethyl)amino)-8-(4-methoxypiperidin-1-yl)pyrimido[5,4-d]pyrimidin-4-yl)-1-methylpiperazin-2-one] | 100 to 500 nM
23 | COCCN(CCOC)c1nc(N2CCC(OC)CC2)c2nc(N(CCO)CCO)nc(N3CC(=O)N(C)C(C)(C)C3)c2n1 [Compound 311, 4-(2-(bis(2-hydroxyethyl)amino)-6-(bis(2-methoxyethyl)amino)-8-(4-methoxypiperidin-1-yl)pyrimido[5,4-d]pyrimidin-4-yl)-1,6,6-trimethylpiperazin-2-one] | < 100 nM
24 | COCCN(CCOC)c1nc(N2CCC(OC)CC2)c2nc(NCCCn3ccnc3)nc(N3CCC(OC)CC3)c2n1 [Compound 134, N2-(3-(1H-imidazol-1-yl)propyl)-N6,N6-bis(2-methoxyethyl)-4,8-bis(4-methoxypiperidin-1-yl)pyrimido[5,4-d]pyrimidine-2,6-diamine] | 500 to 1000 nM
25 | COCCN(CCOC)c1nc(N2CCN(c3ncn(C)n3)CC2)c2nc(N(CCOC)CCOC)nc(NCC(C)C)c2n1 [Compound 219, N4-isobutyl-N2,N2,N6,N6-tetrakis(2-methoxyethyl)-8-(4-(1-methyl-1H-1,2,4-triazol-3-yl)piperazin-1-yl)pyrimido[5,4-d]pyrimidine-2,4,6-triamine] | 100 to 500 nM
